Results: patent US11897851B2, “Heterocyclic GLP-1 agonists” (Gasherbrum Bio, Inc., priority 2021, dated 2024)

Target: T1, GLP-1 Receptor (Homo sapiens, UniProt P43220)
T1 construct: host or cells: HEK293/GLP1R/CRE-LUC (HEK293/CRE-Luc stably expressing the GLP-1 receptor)
Experiment: GLP-1R agonist cAMP stimulation assay (HEK293/GLP1R/CRE-LUC cells, Cisbio cAMP dynamic 2 kit);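 also: compounds tested in half-log serial dilution, cAMP detected with cAMP-d2 and anti-cAMP cryptate antibody reagents after 1 h at room temperature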
Type: cell-based
Conditions: HEK293/CRE-Luc cell line stably expressing the GLP-1 Receptor; 1000 cells/well; 30 min at 37° C.; 0.5 mM IBMX, 0.1% BSA; read-out: GLP1R cAMP Stimulation DR: EC50

T1 sequence (P43220 24-463, species assumed): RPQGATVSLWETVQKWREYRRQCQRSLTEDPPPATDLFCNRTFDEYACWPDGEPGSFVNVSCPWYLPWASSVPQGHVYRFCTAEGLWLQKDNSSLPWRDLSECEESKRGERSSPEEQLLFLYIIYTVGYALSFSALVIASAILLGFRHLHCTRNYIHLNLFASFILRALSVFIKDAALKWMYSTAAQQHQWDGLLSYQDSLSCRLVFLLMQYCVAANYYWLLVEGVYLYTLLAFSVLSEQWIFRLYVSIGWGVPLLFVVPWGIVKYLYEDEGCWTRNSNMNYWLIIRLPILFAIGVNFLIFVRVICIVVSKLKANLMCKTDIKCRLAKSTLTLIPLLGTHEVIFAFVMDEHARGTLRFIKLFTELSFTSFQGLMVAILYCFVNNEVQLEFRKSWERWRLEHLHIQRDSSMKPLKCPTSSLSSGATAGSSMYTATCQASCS

Q: Cc1cc(-c2nnc(C(F)(F)F)[nH]2)cnc1CN1CCC(c2cccc3c2OC(C)(c2ccc(F)cc2F)O3)CC1 (stereo not drawn) [Compound 262, 2-({4-[2-(2,4-difluorophenyl)-2-methyl-2H-1,3-benzodioxol-4-yl]piperidin-1-yl}methyl)-3-methyl-5-[5-(trifluoromethyl)-4H-1,2,4-triazol-3-yl]pyridine] was tested. Which EC50 did it give?
A: Its EC50 is 3 nM.

Q: Which EC50 does the source give for Cn1c(/C=C\C(=O)O)cnc1CN1CCC(c2cccc(OCc3ccc(Cl)cc3F)n2)CC1 [Compound 109, (Z)-3-(2-((4-(6-((4-chloro-2-fluorobenzyl)oxy)pyridin-2-yl)piperidin-1-yl)methyl)-1-methyl-1H-imidazol-5-yl)acrylic acid] here?
A: The EC50 was 86.4 nM.

Q: How did the EC50 turn out when CCn1cncc1Cn1c(/C=C/C(=O)O)nnc1CN1CCC(c2cccc(OCc3ccc(Cl)cc3F)n2)CC1 [Compound 228, (E)-3-(5-((4-(6-((4-chloro-2-fluorobenzyl)oxy)pyridin-2-yl)piperidin-1-yl)methyl)-4-((1-ethyl-1H-imidazol-5-yl)methyl)-4H-1,2,4-triazol-3-yl)acrylic acid] was run?
A: The EC50 was 0.0048 nM.

Q: For C/C(=C\c1cnc(CN2CCC(c3cccc4c3OC[C@@H](c3ccc(Cl)cc3)O4)CC2)n1C[C@@H]1CCO1)C(=O)O [Compound 115a, (E)-3-(2-((4-((R)-2-(4-chlorophenyl)-2,3-dihydrobenzo[b][1,4]dioxin-5-yl)piperidin-1-yl)methyl)-1-(((S)-oxetan-2-yl)methyl)-1H-imidazol-5-yl)-2-methylacrylic acid], which EC50 is on record?
A: The EC50 was 3.2 nM.

Q: Which EC50 does the source give for O=C(O)/C=C/c1cnc(CN2CCC(c3cccc4c3OC[C@@H](c3ccc(Cl)cc3)O4)CC2)n1Cc1cnco1 [Compound 205a, (R,E)-3-(2-((4-(2-(4-chlorophenyl)-2,3-dihydrobenzo[b][1,4]dioxin-5-yl)piperidin-1-yl)methyl)-1-(oxazol-5-ylmethyl)-1H-imidazol-5-yl)acrylic acid] here?
A: Its EC50 is 0.26 nM.

Q: With C[C@]1(c2ccc(Cl)cc2F)Oc2cccc(C3CCN(Cc4ncc(/C=C/C(=O)O)n4CCOCC(F)(F)F)CC3)c2O1 [Compound 198a, (S,E)-3-(2-((4-(2-(4-chloro-2-fluorophenyl)-2-methylbenzo[d][1,3]dioxol-4-yl)piperidin-1-yl)methyl)-1-(2-(2,2,2-trifluoroethoxy)ethyl)-1H-imidazol-5-yl)acrylic acid] as the compound, how does the EC50 read?
A: Its EC50 is 0.0095 nM.

Q: For CC#CCn1c(/C=C/C(=O)O)cnc1CN1CCC(c2cccc3c2OC(C)(c2ccc(Cl)cc2F)O3)CC1 (stereo not drawn) [Compound 193, (E)-3-(1-(but-2-yn-1-yl)-2-((4-(2-(4-chloro-2-fluorophenyl)-2-methylbenzo[d][1,3]dioxol-4-yl)piperidin-1-yl)methyl)-1H-imidazol-5-yl)acrylic acid], which EC50 is on record?
A: The EC50 was 0.11 nM.

Q: Which EC50 does the source give for CC1(c2ccc(Cl)cc2F)Oc2cccc(C3CCN(Cc4ncc(/C=C/C(=O)O)n4Cc4ncco4)CC3)c2O1 (stereo not drawn) [Compound 183, (E)-3-(2-((4-(2-(4-chloro-2-fluorophenyl)-2-methylbenzo[d][1,3]dioxol-4-yl)piperidin-1-yl)methyl)-1-(oxazol-2-ylmethyl)-1H-imidazol-5-yl)acrylic acid] here?
A: The EC50 was 0.015 nM.

Q: For CC1(c2ccc(Cl)cc2F)Oc2cccc(C3CCN(Cc4ncc(/C=C/C(=O)O)n4Cc4ccno4)CC3)c2O1 (stereo not drawn) [Compound 181, (E)-3-(2-((4-(2-(4-chloro-2-fluorophenyl)-2-methylbenzo[d][1,3]dioxol-4-yl)piperidin-1-yl)methyl)-1-(isoxazol-5-ylmethyl)-1H-imidazol-5-yl)acrylic acid], which EC50 is on record?
A: Its EC50 is 4.1 nM.

Q: Which EC50 does the source give for CC1(c2ccc(Cl)cc2F)Oc2cccc(C3CCN(Cc4ncc(-c5nnc(C(F)(F)F)[nH]5)cc4CC4CCCS4(=O)=O)CC3)c2O1 (stereo not drawn) [Compound 266, 2-{[2-({4-[2-(4-chloro-2-fluorophenyl)-2-methyl-2H-1,3-benzodioxol-4-yl]piperidin-1-yl}methyl)-5-[5-(trifluoromethyl)-4H-1,2,4-triazol-3-yl]pyridin-3-yl]methyl}-1λ^6-thiolane-1,1-dione] here?
A: The EC50 was 10 nM.

Q: How did the EC50 turn out when C[C@]1(c2ccc(Cl)cc2F)Oc2cccc(C3CCN(Cc4ncc(/C=C/C(=O)O)n4C[C@H]4CCS4(=O)=O)CC3)c2O1 (single isomer, unassigned) [Compound 173b] was run?
A: Its EC50 is 0.0014 nM.

Q: Cc1cc(/C=C/C(=O)O)cnc1CN1CCC(c2cccc(OCc3ccc(Cl)cc3F)n2)CC1 [Compound 120, (E)-3-(6-((4-(6-((4-chloro-2-fluorobenzyl)oxy)pyridin-2-yl)piperidin-1-yl)methyl)-5-methylpyridin-3-yl)acrylic acid] was tested. Which EC50 did it give?
A: Its EC50 is 99 nM.

Q: Which EC50 does the source give for COCCc1cc(-c2noc(=O)[nH]2)cnc1CN1CCC(c2cccc3c2OC(C)(c2ccc(Cl)cc2F)O3)CC1 (stereo not drawn) [Compound 268, 3-[6-({4-[2-(4-chloro-2-fluorophenyl)-2-methyl-2H-1,3-benzodioxol-4-yl]piperidin-1-yl}methyl)-5-(2-methoxyethyl)pyridin-3-yl]-4,5-dihydro-1,2,4-oxadiazol-5-one] here?
A: The EC50 was 7.7 nM.

Q: Cc1cc(C(=O)O)cnc1CN1CCC(c2cccc(OCc3ccc(Cl)cc3F)n2)CC1 [Compound 129, 6-((4-(6-((4-chloro-2-fluorobenzyl)oxy)pyridin-2-yl)piperidin-1-yl)methyl)-5-methylnicotinic acid] was tested. Which EC50 did it give?
A: The EC50 was 1500 nM.

Q: For O=C(O)/C=C/c1cnc(CN2CCC(c3cccc(OCc4ccc(Cl)cc4F)n3)CC2)n1CC1CCC1 [Compound 211, (E)-3-(2-((4-(6-((4-chloro-2-fluorobenzyl)oxy)pyridin-2-yl)piperidin-1-yl)methyl)-1-(cyclobutylmethyl)-1H-imidazol-5-yl)acrylic acid], which EC50 is on record?
A: Its EC50 is 0.54 nM.

Q: O=C(O)COc1ccc(CN2CCC(c3cccc(OCc4ccc(Cl)cc4F)n3)CC2)nc1 [Compound 119, 2-((6-((4-(6-((4-chloro-2-fluorobenzyl)oxy)pyridin-2-yl)piperidin-1-yl)methyl)pyridin-3-yl)oxy)acetic acid] was tested. Which EC50 did it give?
A: The EC50 was 1500 nM.

Q: CCn1cncc1Cn1c(/C=C(\C)C(=O)O)cnc1CN1CCC(c2cccc3c2O[C@@](C)(c2ccc(Cl)cc2F)O3)CC1 [Compound 138a, (S,E)-3-(2-((4-(2-(4-chloro-2-fluorophenyl)-2-methylbenzo[d][1,3]dioxol-4-yl)piperidin-1-yl)methyl)-1-((1-ethyl-1H-imidazol-5-yl)methyl)-1H-imidazol-5-yl)-2-methylacrylic acid] was tested. Which EC50 did it give?
A: Its EC50 is 0.0023 nM.

Q: How did the EC50 turn out when O=C(O)/C=C/c1cnc(CN2CCC(c3cccc4c3OC[C@@H](c3ccc(Cl)cc3)O4)CC2)n1Cc1cccnc1 [Compound 209a, (R,E)-3-(2-((4-(2-(4-chlorophenyl)-2,3-dihydrobenzo[b][1,4]dioxin-5-yl)piperidin-1-yl)methyl)-1-(pyridin-3-ylmethyl)-1H-imidazol-5-yl)acrylic acid] was run?
A: Its EC50 is 0.54 nM.

Q: How did the EC50 turn out when O=c1[nH]c(-c2cnc(CN3CCC(c4cccc(OCc5ccc(Cl)cc5F)n4)CC3)n2C[C@@H]2CCO2)no1 [Compound 249a, (S)-3-(2-((4-(6-((4-chloro-2-fluorobenzyl)oxy)pyridin-2-yl)piperidin-1-yl)methyl)-1-(oxetan-2-ylmethyl)-1H-imidazol-5-yl)-1,2,4-oxadiazol-5(4H)-one] was run?
A: The EC50 was 3.7 nM.

Q: C/C(=C\c1nnc(CN2CCC(c3cccc(OCc4ccc(Cl)cc4F)n3)CC2)n1C[C@@H]1CCO1)C(=O)O [Compound 226a, (S,E)-3-(5-((4-(6-((4-chloro-2-fluorobenzyl)oxy)pyridin-2-yl)piperidin-1-yl)methyl)-4-(oxetan-2-ylmethyl)-4H-1,2,4-triazol-3-yl)-2-methylacrylic acid] was tested. Which EC50 did it give?
A: The EC50 was 1.2 nM.

Q: CC(Oc1ccc(CN2CCC(c3cccc(OCc4ccc(Cl)cc4F)n3)CC2)nc1)C(=O)O (stereo not drawn) [Compound 125, 2-((6-((4-(6-((4-chloro-2-fluorobenzyl)oxy)pyridin-2-yl)piperidin-1-yl)methyl)pyridin-3-yl)oxy)propanoic acid] was tested. Which EC50 did it give?
A: The EC50 was > 1000 nM.

Q: Which EC50 does the source give for O=C(O)/C=C/c1cnc(CN2CCC(c3cccc(OCc4ccc(Cl)cc4F)n3)CC2)n1CC1CCCO1 (stereo not drawn) [Compound 213, (E)-3-(2-((4-(6-((4-chloro-2-fluorobenzyl)oxy)pyridin-2-yl)piperidin-1-yl)methyl)-1-((tetrahydrofuran-2-yl)methyl)-1H-imidazol-5-yl)acrylic acid] here?
A: The EC50 was 4.2 nM.

Q: How did the EC50 turn out when COC1(Cn2c(/C=C/C(=O)O)cnc2CN2CCC(c3cccc4c3OC(C)(c3ccc(Cl)cc3F)O4)CC2)CC1 (stereo not drawn) [Compound 196, (E)-3-(2-((4-(2-(4-chloro-2-fluorophenyl)-2-methylbenzo[d][1,3]dioxol-4-yl)piperidin-1-yl)methyl)-1-((1-methoxycyclopropyl)methyl)-1H-imidazol-5-yl)acrylic acid] was run?
A: Its EC50 is 0.058 nM.

Q: Which EC50 does the source give for O=C(O)C1CC1c1cnc(CN2CCC(c3cccc4c3OC[C@@H](c3ccc(Cl)cc3)O4)CC2)n1C[C@@H]1CCO1 (stereo partly drawn) [Compound 248, 2-(2-((4-((R)-2-(4-chlorophenyl)-2,3-dihydrobenzo[b][1,4]dioxin-5-yl)piperidin-1-yl)methyl)-1-(((S)-oxetan-2-yl)methyl)-1H-imidazol-5-yl)cyclopropane-1-carboxylic acid] here?
A: Its EC50 is 35 nM.

Q: For COCCn1c(/C=C/C(=O)O)cnc1CN1CCC(c2cccc3c2OC(C)(c2ccc(Cl)cc2F)O3)CC1 (stereo not drawn) [Compound 141, (E)-3-(2-((4-(2-(4-chloro-2-fluorophenyl)-2-methylbenzo[d][1,3]dioxol-4-yl)piperidin-1-yl)methyl)-1-(2-methoxyethyl)-1H-imidazol-5-yl)acrylic acid], which EC50 is on record?
A: Its EC50 is 0.012 nM.

Q: How did the EC50 turn out when O=C(O)/C(F)=C/c1cnc(CN2CCC(c3cccc(OCc4ccc(Cl)cc4F)n3)CC2)n1C[C@@H]1CCO1 [Compound 215a, (S,Z)-3-(2-((4-(6-((4-chloro-2-fluorobenzyl)oxy)pyridin-2-yl)piperidin-1-yl)methyl)-1-(oxetan-2-ylmethyl)-1H-imidazol-5-yl)-2-fluoroacrylic acid] was run?
A: Its EC50 is 55 nM.

Q: For O=C(O)/C=C/c1nnc(CN2CCC(c3cccc(OCc4ccc(Cl)cc4F)n3)CC2)n1CC1CCOC1 (stereo not drawn) [Compound 232, (E)-3-(5-((4-(6-((4-chloro-2-fluorobenzyl)oxy)pyridin-2-yl)piperidin-1-yl)methyl)-4-((tetrahydrofuran-3-yl)methyl)-4H-1,2,4-triazol-3-yl)acrylic acid], which EC50 is on record?
A: Its EC50 is 1.2 nM.
